Reference: EPA's ToxValDB 9.5
Where “and” joins values, the source holds several entries; their conditions need not be identical. Equal values may be shown once.

Tests used:
Cavia porcellus [1] = settings: acute; oral; Guinea Pig
Mus musculus [2] = system: Mus musculus
Oryctolagus sp. [3] = settings: acute
Rattus norvegicus [4] = settings: oral
Rattus norvegicus [5] = settings: subchronic, oral
Canidae [6] = assay: LD0; higher = less toxic; settings: acute; injection; intravenous; Dog Other
Cavia porcellus [7] = assay: LD0; higher = less toxic; settings: acute; injection; subcutaneous; Guinea Pig
Oryctolagus sp. [8] = assay: LD0; higher = less toxic; settings: acute; dermal
Rattus norvegicus [9] = assay: LD0; higher = less toxic; settings: acute; injection; subcutaneous
Mus musculus [10] = assay: LD100; higher = less toxic; settings: acute
Sus scrofa [11] = settings: subchronic; duration: 90 days; oral; diet; M/F; Not specified; Urinary, Hepatic
Oryctolagus sp. [12] = assay: LD40; higher = less toxic; settings: acute; dermal; occlusive; New Zealand
Mus musculus [13] = settings: uterotrophic, Active
Ovis sp. = settings: uterotrophic; duration: 14 days; injection; Active
Rattus norvegicus [14] = settings: uterotrophic, Active
Homo sapiens [15] = settings: clinical; duration: 16 days; oral; M/F; plasma cholinesterase inhibition
Rattus norvegicus [16] = settings: repeat dose other; oral
Mus musculus [17] = settings: developmental; inhalation; M/F; developmental toxicity (skeletal variations)
Rattus norvegicus [18] = settings: developmental; oral; drinking water; M/F; reduced pup body weight
Homo sapiens [19] = settings: clinical; duration: 6 hours; inhalation; M/F; neurological
Mus musculus [20] = settings: developmental; duration: 10 days; inhalation; intermittent; Fetus: Decreased birth weight
Rattus norvegicus [21] = settings: developmental; oral; drinking water; Fetus: Decreased birth weight
Rattus norvegicus [22] = assay: LD5; higher = less toxic; settings: developmental; oral; drinking water; M/F; reduced pup body weight
Canidae [23] = settings: subchronic; duration: 13 weeks; oral; diet; F; Beagle
Oryctolagus sp. [24] = settings: uterotrophic; duration: 12 days; oral; Active
Sus scrofa [25] = settings: reproduction developmental; duration: 15 days; oral; diet; F; Not specified; Increased inter-estrus interval, concentrations of progesterone and prolonged maintenance of corpora lutea
[26] = subchronic, duration: 13 weeks, oral, diet, B6C3F1
[27] = subchronic, duration: 13 weeks, diet, Fischer 344
[28] = gavage, M, Sprague-Dawley, Clinical Observation: Salivation (transient) + Functional Observational Battery: Salivation Spontaneous motor activity (total ambulatory …
[29] = duration: 1 days, injection, subcutaneous

For `NC(=Nc1ccccc1)Nc1ccccc1` [1,3-Diphenylguanidine], the LD50 (Cavia porcellus [1]) was 250 mg/kg, the LD50 (Mus musculus [2]; acute, injection, Intraperitoneal) was 75 mg/kg and ≥ 25 mg/kg and ≤ 50 mg/kg and the NOAEL (Mus musculus [2]; developmental, duration: 19 days, oral, gavage, ICR) was ≥ 10 mg/kg-day. For the same molecule, the NOAEL (Mus musculus [2]; reproduction developmental, duration: 8 weeks, oral, gavage, CD1, generation: F0) was ≥ 16 mg/kg-day, the NOAEL (Mus musculus [2]; reproduction developmental, duration: 19 days, oral, gavage, F, ICR) was 4 mg/kg-day and the LOAEL (Mus musculus [2]; [26]) was 148 mg/kg-day. For the same molecule, the NOAEL (Mus musculus [2]; [26]) was 98.5 mg/kg-day, the LD50 (Oryctolagus sp. [3]; oral) was 250 mg/kg and 246 mg/kg and the NOAEL (Rattus norvegicus [4]; developmental, duration: 10 days, gavage, Sprague-Dawley) was 25 mg/kg-day. For the same molecule, the NOAEL (Rattus norvegicus [4]; reproduction developmental, duration: 13 weeks, diet, Fischer 344, generation: F0) was 750 ppm, the NOAEL (Rattus norvegicus [4]; reproduction developmental, duration: 10 days, gavage, F, Sprague-Dawley) was 5 mg/kg-day and 10 mg/kg-day and the LOAEL (Rattus norvegicus [4]; short-term, duration: 14 days, diet, Sprague-Dawley) was 300 ppm. The NOAEL (Rattus norvegicus [4]; short-term, duration: 28 days, diet) was 100 ppm, the LOAEL (Rattus norvegicus [4]; [27]) was 72 mg/kg-day and the NOAEL (Rattus norvegicus [4]; [27]) was 48 mg/kg-day. The NOAEL (Rattus norvegicus [4]; subchronic, duration: 90 days, diet, Sprague-Dawley) was 14.4 mg/kg-day, the NOEL (Rattus norvegicus [5]; diet, F, Fischer 344, Deaths + Clinical Observation: Ruffled fur Emacation Pale skin + Body Weight Changes: decrease + Food Consumption: decrease + Hematology: …) was < 17 mg/kg-day and the NOEL (Rattus norvegicus [5]; diet, M/F, Fischer 344, Deaths + Clinical Observation: Ruffled fur Emacation Pale skin + Body Weight Changes: decrease + Food Consumption: decrease + Hematology: …) was < 24 mg/kg-day. For the same molecule, the LD0 (Canidae [6]) was 25 mg/kg, the LD0 (Cavia porcellus [7]) was 200 mg/kg and the LD0 (Oryctolagus sp. [8]) was > 2000 mg/kg. The LD0 (Rattus norvegicus [9]) was 50 mg/kg, the LD100 (Mus musculus [10]; injection, subcutaneous) was 50 mg/kg and the LD100 (Mus musculus [10]; oral) was 450 mg/kg.
Molecule `CCOCCOCCO` [2-(2-Ethoxyethoxy)ethanol] has an NOAEL (Rattus norvegicus [5]; duration: 60 days, gavage, M, CD(BR), Deaths + Clinical Observation: Bloody urine LethargyProstration PiloerectionUnkempt hair coat Blood around the mouth and nose + Body Weight …) of 1340 mg/kg-day, an NOAEL (Rattus norvegicus [5]; duration: 90 days, diet, M/F, CFE, Body Weight Changes: Terminal body weight decrease% + Food Consumption: decrease% + Urinalysis: Oxalate crystals increase% + Hematology: …) of 0.5% and an NOAEL (Sus scrofa [11]) of 167 mg/kg-day.
With `Cc1ccncc1` [4-Methylpyridine] the LD50 (Oryctolagus sp. [3]; dermal, occlusive, New Zealand) was ≥ 126 mg/kg and ≤ 200 mg/kg, the LD50 (Rattus norvegicus [4]; acute, gavage, Sprague-Dawley) was 841 mg/kg and 700 mg/kg and the LOEL (Rattus norvegicus [5]; [28]) was 20 mg/kg-day. The NOEL (Rattus norvegicus [5]; [28]) was 5 mg/kg-day and the LD40 (Oryctolagus sp. [12]) was ≥ 200 mg/kg and ≤ 316 mg/kg.
In the case of `C[C@]12CC[C@@H]3c4ccc(O)cc4CC[C@H]3[C@@H]1C[C@@H](O)[C@@H]2O` [Estriol], the LEL (Mus musculus [13]; duration: 0.17 days, injection, subcutaneous) is reported as 2.88e-07 mg, the LEL (Mus musculus [13]; [29]) is reported as 0.0761 mg/kg-day and the “LEL (gamma)” value (Mus musculus [13]; duration: 3 days, injection, subcutaneous) is reported as 0.04. For the same molecule, the LEL (Mus musculus [13]; duration: 3 days, oral) was 0.93 mg/kg-day, the LEL (Ovis sp.) was 0.001 mg/day and the LEL (Rattus norvegicus [14]; duration: 0.125 days, injection, subcutaneous) was 0.001 mg/day. It also gave an LEL (Rattus norvegicus [14]; duration: 0.25 days, injection, subcutaneous) of 0.001 mg/day, an LEL (Rattus norvegicus [14]; duration: 1 days, dermal) of 3 mg/L and an LEL (Rattus norvegicus [14]; duration: 1 days, injection, intraperitoneal) of 0.001 mg. The “LEL (% (w/w))” value (Rattus norvegicus [14]; duration: 2 days, implant) was 40, the “LEL (pellets)” value (Rattus norvegicus [14]; duration: 2 days, implant) was 4 and the LEL (Rattus norvegicus [14]; duration: 2 days, injection, subcutaneous) was 0.01 mg/day. For the same molecule, the LEL (Rattus norvegicus [14]; duration: 3 days, oral) was 0.09 mg/kg-day and the “LEL (rat units)” value (Rattus norvegicus [14]; duration: 5 days) was 1.
With `O=P(O)(O)CCCl` [Ethephon] the LEL (Homo sapiens [15]) was 0.5 mg/kg-day.
With `CCC(C)=O` [Methyl ethyl ketone] the LOAEL (Rattus norvegicus [16]) was 4570 mg/kg-day, the NOAEL (Rattus norvegicus [16]) was 1770 mg/kg-day and the LEC (Mus musculus [17]) was 5200 mg/m3. For the same molecule, the LOAEL (Rattus norvegicus [18]) was 1770 mg/kg-day, the NOAEL (Rattus norvegicus [18]) was 594 mg/kg-day and the LOAEL (Homo sapiens [19]) was 292 mg/m3. It also gave an NOAEL (Mus musculus [20]) of 2980 mg/m3, an NOAEL (Rattus norvegicus [21]) of 1710 mg/kg-day and an LD5 (Rattus norvegicus [22]) of 639 mg/kg-day.
Work on `c1ccc2c(c1)Nc1ccccc1S2` [Phenothiazine] yielded an NOAEL (Canidae [23]) of 1.59 mg/kg-day.
With `C[C@H]1CCCC(=O)CCC/C=C/c2cc(O)cc(O)c2C(=O)O1` [Zearalenone] the NOEL (Rattus norvegicus [5]; duration: 13 weeks, diet, M/F, Fischer 344, Body Weight Changes: decrease + Histopathology: Seminal vesicle-Atrophy Bone-Osteopetrosis Pituitary-Hyperplasia Mammary gland-Ductular …) was < 2.88 mg/kg-day, the LEL (Mus musculus [13]; [29]) was 5 mg/kg-day and the LEL (Mus musculus [13]; duration: 7 days, oral) was 1 mg/kg-day. It also gave an LEL (Mus musculus [13]; oral) of 2 mg/kg-day, an LEL (Oryctolagus sp. [24]) of 1 mg/kg-day and an LEL (Rattus norvegicus [14]; duration: 3 days, oral) of 0.18 mg/day. The LEL (Rattus norvegicus [14]; duration: 3 days, oral, diet) was 1 mg/kg-day, the LEL (Rattus norvegicus [14]; duration: 8 days, oral) was 1 mg/kg-day and the LOEL (Sus scrofa [25]) was 0.2 mg/kg-day. For the same molecule, the NOEL (Sus scrofa [25]) was 0.04 mg/kg-day.
